The subject of the data set is U2932 KD cells. As for the experimental part: pLKO.puro shRNA vectors were used for ZNF586, ZNF587 and ZNF417 knock downs. […] The short hairpin RNAs (shRNAs) targeting the sequence ZNF586 (TRCN0000015373 and TRCN0000015376) were obtained from Sigma-Aldrich. Lentiviral vectors production protocols are detailed at http://tronolab.epfl.ch. The cell proliferation after LV transduction was determined using the 3-[4,5-dimethylthiazol-2-yl]-2,5-diphenyltetrazolium bromide (MTT) assay. The cells were transduced at a multiplicity of infection (MOI) of 20 in every experiment.

As for `Nc1ncn([C@H]2C[C@H](O)[C@@H](CO)O2)c(=O)n1` [decitabine], the “cytotoxic interaction of drug with ZNF587/417 depletion” value is recorded as “cytotoxic synergism”.

`C=CC(=O)N1CCC[C@@H](n2nc(-c3ccc(Oc4ccccc4)cc3)c3c(N)ncnc32)C1` [ibrutinib]: the “cytotoxic interaction of drug with ZNF587/417 depletion” value is recorded as “cytotoxic synergism”.

For the origin of these results see patent US20240271133A1, “KRAB-Containing Zinc Finger Protein And Cancer” (ECOLE POLYTECHNIQUE FEDERALE DE LAUSANNE (EPFL), priority 2021, published 2024).
